# Assay results from patent publication US12643926B2, “LysM receptor motifs” (Aarhus Universitet, priority 2020, dated 2026).
# “Also recorded” adds a separate entry of the source. Read-outs that look alike come from different tables or passages of the source.
# B1: construct 41: Nfr1 promoter; LYK3 (protein, UniProt Q6UD73 1-620, looked up)
# chain: MNLKNGLLLFILFLDCVFFKVESKCVKGCDVALASYYIIPSIQLRNISNFMQSKIVLTNSFDVIMSYNRDVVFDKSGLISYTRINVPFPCECIGGEFLGHVFEYTTKEGDDYDLIANTYYASLTTVELLKKFNSYDPNHIPVKAKINVTVICSCGNSQISKDYGLFVTYPLRSDDTLAKIATKAGLDEGLIQNFNQDANFSIGSGIVFIPGRDQNGHFFPLYSRTGIAKGSAVGIAMAGIFGLLLFVIYIYAKYFQKKEEEKTKLPQTSRAFSTQDASGSAEYETSGSSGHATGSAAGLTGIMVAKSTEFTYQELAKATNNFSLDNKIGQGGFGAVYYAELRGEKTAIKKMDVQASSEFLCELKVLTHVHHLNLVRLIGYCVEGSLFLVYEHIDNGNLGQYLHGIGTEPLPWSSRVQIALDSARGLEYIHEHTVPVYIHRDVKSANILIDKNLRGKVADFGLTKLIEVGNSTLHTRLVGTFGYMPPEYAQYGDVSPKIDVYAFGVVLYELITAKNAVLKTGESVAESKGLVQLFEEALHRMDPLEGLRKLVDPRLKENYPIDSVLKMAQLGRACTRDNPLLRPSMRSIVVALMTLSSPTEDCDDDSSYENQSLINLLSTR
# modifications: full-length expressed from Nfr1 promoter
# notes: Nfr1 promoter; LYK3
# B2: A. thaliana CERK1: A. thaliana LysM chitin receptor CERK1 (protein, UniProt A8R7E6 24-617, looked up)
# Chitin elicitor receptor …: KCRTSCPLALASYYLENGTTLSVINQNLNSSIAPYDQINFDPILRYNSNIKDKDRIQMGSRVLVPFPCECQPGDFLGHNFSYSVRQEDTYERVAISNYANLTTMESLQARNPFPATNIPLSATLNVLVNCSCGDESVSKDFGLFVTYPLRPEDSLSSIARSSGVSADILQRYNPGVNFNSGNGIVYVPGRDPNGAFPPFKSSKQDGVGAGVIAGIVIGVIVALLLILFIVYYAYRKNKSKGDSFSSSIPLSTKADHASSTSLQSGGLGGAGVSPGIAAISVDKSVEFSLEELAKATDNFNLSFKIGQGGFGAVYYAELRGEKAAIKKMDMEASKQFLAELKVLTRVHHVNLVRLIGYCVEGSLFLVYEYVENGNLGQHLHGSGREPLPWTKRVQIALDSARGLEYIHEHTVPVYVHRDIKSANILIDQKFRAKVADFGLTKLTEVGGSATRGAMGTFGYMAPETVYGEVSAKVDVYAFGVVLYELISAKGAVVKMTEAVGEFRGLVGVFEESFKETDKEEALRKIIDPRLGDSYPFDSVYKMAELGKACTQENAQLRPSMRYIVVALSTLFSSTGNWDVGNFQNEDLVSLMSGR
# B3: wild type M. truncatula NFP gene: wild type M. truncatula NFP transgene used to transform nfp mutant roots (protein, UniProt Q0GXS4 1-595, looked up)
# chain: MSAFFLPSSSHALFLVLMLFFLTNISAQPLYISETNFTCPVDSPPSCETYVAYRAQSPNFLSLSNISDIFNLSPLRIAKASNIEAEDKKLIPDQLLLVPVTCGCTKNHSFANITYSIKQGDNFFILSITSYQNLTNYLEFKNFNPNLSPTLLPLDTKVSVPLFCKCPSKNQLNKGIKYLITYVWQDNDNVTLVSSKFGASQVEMLAENNHNFTASTNRSVLIPVTSLPKLDQPSSNGRKSSSQNLALIIGISLGSAFFILVLTLSLVYVYCLKMKRLNRSTSSSETADKLLSGVSGYVSKPTMYEIDAIMEGTTNLSDNCKIGESVYKANIDGRVLAVKKIKKDASEELKILQKVNHGNLVKLMGVSSDNDGNCFLVYEYAENGSLEEWLFSESSKTSNSVVSLTWSQRITIAMDVAIGLQYMHEHTYPRIIHRDITTSNILLGSNFKAKIANFGMARTSTNSMMPKIDVFAFGVVLIELLTGKKAMTTKENGEVVILWKDFWKIFDLEGNREERLRKWMDPKLESFYPIDNALSLASLAVNCTADKSLSRPTIAEIVLCLSLLNQPSSEPMLERSLTSGLDAEATHVVTSVIAR
# modifications: full-length
# notes: wild type M. truncatula NFP transgene used to transform nfp mutant roots
# Tests used:
# [1] = target: T1, Medicago truncatula NFP ectodomain, wild type (residues 28-246) (Medicago truncatula, UniProt Q0GXS4); assay: biolayer interferometry (BLI) binding of S. meliloti Nod factor LCO-IV to NFP WT ectodomain; conditions: n = 7
# T1 construct: The M. truncatula NFP ectodomain (residues 28-246); AcMNPV gp67 signal peptide, replaces the native signal peptide (N); hexa-histidine (C); made in house; host or cells: Sf9 insect cells (Spodoptera frugiperda), baculovirus
# Method: (§1) The M. truncatula NFP ectodomain (residues 28-246) was codon-optimized for insect cell expression (Genscript, Piscataway, USA) and cloned into the pOET4 baculovirus transfer vector (Oxford Expression Technologies). The native NFP signal peptide (residues 1-27, predicted by SignalP 4.1) was replaced with the AcMNPV gp67 signal peptide to facilitate secretion and a hexa-histidine tag was added to the C-terminus. Recombinant baculoviruses were produced in […] (Spodoptera frugiperda) using the FlashBac Gold kit (Oxford Expression technologies) according to the manufacturer's instructions with Lipofectin (ThermoFisher Scientific) as a transfection reagent. Protein expression was performed as follows. Suspension-cultured Sf9 cells were maintained with shaking at 299 K in serum-free MAX-XP (BD-Biosciences, discontinued) or HyClone SFX (GE Healthcare) medium supplemented with 1% Pen-Strep (10000 U/ml, Life technologies) and 1% CD lipid concentrate (Gibco). Protein expression was induced by adding recombinant passage 3 virus once the Sf9 cells reached a cell density of 1.0*10^6 cells/ml. After 5-7 days of expression, medium supernatant containing NFP ectodomains was harvested by centrifugation. This was followed by an overnight dialysis step against 50 mM Tris-HCl pH 8, 200 mM NaCl at 277 K. The NFP ectodomain was enriched by two subsequent steps of Ni-IMAC purification (HisTrap excel/HisTrap HP, both GE Healthcare). For crystallography, N-glycans were removed using the endoglycosidase PNGase F (1:15 (w/w), room temperature, overnight). As a final purification step, NFP ectodomains was purified by SEC on a Superdex 200 10/300 or HiLoad Superdex 200 16/600 (both GE Healthcare) in phosphate buffered saline at pH 7.2 supplemented to a total of 500 mM NaCl (for binding assays) or 50 mM Tris-HCl, 200 mM NaCl (for crystallography). NFP ectodomain eluted as a single, homogeneous peak corresponding to a monomer.
# (§2) The binding assay using NFP wild type (WT) was replicated seven times, while the binding assay using the NFP mutant NFP L147D L154D was replicated four times.
# Binding of NFP WT and NFP L147D/L154D mutant to S. meliloti Nod factor LCO-IV was measured on an Octet RED 96 system (Pall ForteBio). […] Equilibrium dissociation constants derived from the steady-state were determined by applying a non-linear regression (one site, specific binding) to the response at equilibrium plotted against the protein concentration. Kinetic parameters were determined by non-linear regression (association followed by dissociation) on the subtracted data. […]
# [2] = target: T2, Medicago truncatula NFP ectodomain (residues 28-246) double mutant L147D L154D (Medicago truncatula, UniProt Q0GXS4, L147D/L154D); assay: biolayer interferometry (BLI) binding of S. meliloti Nod factor LCO-IV to NFP L147D L154D ectodomain; conditions: double mutant vs WT
# T2 construct: The M. truncatula NFP ectodomain (residues 28-246); AcMNPV gp67 signal peptide, replaces the native signal peptide (N); hexa-histidine (C); made in house; host or cells: Sf9 insect cells (Spodoptera frugiperda), baculovirus
# Method: as §1
# The M. truncatula NFP leucine residues L147 and L154 were replaced with aspartate residues. Aspartate is similar in size to leucine, but negatively charged where leucine is hydrophobic. Point mutants of NFP were engineered using site-directed mutagenesis. In particular, a double-mutated NFP was engineered where the leucine residues L147 and L154 were replaced with aspartate residues to create the mutant NFP L147D L154D. Point mutated versions of the NFP ectodomain were expressed and purified as described above.
# as §2
# (§3) Binding of NFP WT and NFP L147D/L154D mutant to S. meliloti Nod factor LCO-IV was measured on an Octet RED 96 system (Pall ForteBio). S. meliloti Nod factor LCO-IV consists of a tetrameric/pentameric N-acetylglucosamine backbone that is O-sulfated on the reducing terminal residue, O-acetylated on the non-reducing terminal residue, and mono-N-acylated by unsaturated C16 acyl groups. Biotinylated ligand conjugates were immobilized on streptavidin biosensors (kinetic quality, Pall ForteBio) at a concentration of 125-250 nM for 5 minutes. The binding assays were replicated 7 times for the NFP WT, and 4 times for the NFP L147D/L154D mutant. Data analysis was performed in GraphPad Prism 6 software (GraphPad Software, Inc.). Equilibrium dissociation constants derived from the steady-state were determined by applying a non-linear regression (one site, specific binding) to the response at equilibrium plotted against the protein concentration. Kinetic parameters were determined by non-linear regression (association followed by dissociation) on the subtracted data. Table 9 summarizes the kinetic parameters of FIGS. 18C-18D, with goodness of fit described by the global fit R^2 on the mean value of each point, and number of replicates performed using independent protein preparations (n) indicated.
# [3] = system: L. japonicus nfr1-1 loss-of-function mutant; assay: Nodulation assay: complementation of L. japonicus nfr1-1 hairy roots after M. loti R7A DsRed inoculation; assay type: in vivo, Lotus japonicus; conditions: Nfr1 promoter, five weeks post inoculation
# Method: A. rhizogenes carrying the expression constructs of interest were grown for two days on solid medium. The cells of one plate were resuspended in 2 ml YMB media, and this process was repeated for each construct. A 1 ml syringe with a needle (Sterican Ø0.40×20 mm) was then used to transform the plants, whereby the needle was used to puncture the hypocotyl and a droplet with the bacterial suspension was placed on the wound. Petri dishes containing the transformed roots were sealed and left in the dark for two days and then moved to 21° C. under 16 hour light/8 hour dark conditions. After three weeks, plants with transformed roots were moved to Magenta boxes (Sigma-Aldrich) filled with a 4:1 mixture of lightweight expanded clay aggregate (LECA, 2-4 mm; Saint-Gobain Weber A/S) and vermiculite (size M; Damolin A/S) supplemented with 80 ml nitrogen-free ¼× B&D nutrient solution. All plants were grown at 21° C. under 16 hour light/8 hour dark conditions.
# Chimeric receptors under the control of the Nfr1 promoter were tested for their ability to complement a L. japonicus nfr1-1 loss-of-function mutant that is unable to develop root nodules (Radutoiu, S. et al. Nature 2003 425). […] At five weeks post inoculation, nodules were counted and images were acquired with a Leica FluoStereo M165FC microscope equipped with the Leica DFC310 FX camera. […]
# [4] = Biolayer interferometry of A. thaliana CERK1 binding to chitin fragments; conditions: BLI; CO5 and CO8; result in words
# Method: as §3, with “Table 9 summarizes the kinetic parameters of FIGS. 18C-18D, with goodness of fit described by the global fit R^2 on the mean value of each point, and number of replicates performed using independent protein preparations (n) indicated.” left out
# Binding of A. thaliana CERK1 (AtCERK1) to chitopentaose (CO5) and chitooctaose (CO8) was measured in the same way.
# [5] = system: M. truncatula nfp mutants; assay: Complementation assay of M. truncatula nfp mutants, inoculation with S. meliloti strain 2011; assay type: in vivo, Medicago truncatula; conditions: nfp mutant roots; 6-7 weeks after inoculation with S. meliloti strain 2011
# Excerpt: Construct assembly, plant growth conditions, hairy root transformations, nodulation and ROS assays were generally conducted as described in Bozsoki, et al. 2017 (Bozsoki, Z. et al. Proc. Natl. Acad. Sci. 2017 114: E8118-E8127). The tested transgenes were the mutated LysM receptors described above.
# T2 sequence (Q0GXS4 28-246 L147D/L154D): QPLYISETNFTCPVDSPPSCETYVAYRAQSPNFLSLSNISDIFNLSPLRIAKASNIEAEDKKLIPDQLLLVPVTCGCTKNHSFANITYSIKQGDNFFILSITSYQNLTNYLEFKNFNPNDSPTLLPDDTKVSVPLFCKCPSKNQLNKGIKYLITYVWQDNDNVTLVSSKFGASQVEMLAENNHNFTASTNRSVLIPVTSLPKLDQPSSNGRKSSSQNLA
molecule,measurement,setting,value
CCCCCC/C=C\CCCCC/C=C/C(=O)N[C@H]1[C@H](O[C@H]2[C@H](O)[C@@H](NC(C)=O)[C@H](O[C@H]3[C@H](O)[C@@H](NC(C)=O)[C@H](O[C@H]4[C@H](O)[C@@H](NC(C)=O)C(O)O[C@@H]4COS(=O)(=O)O)O[C@@H]3CO)O[C@@H]2CO)O[C@H](COC(C)=O)[C@@H](O)[C@@H]1O (stereo partly shown) [S. meliloti Nod factor LCO-IV],kon,"[1]; Table 8, read-out: A (converted)",0.958 M⁻¹ s⁻¹
same,koff,"[1]; Table 8, read-out: D (converted)",2.48e-05 s⁻¹
same,koff,"[1]; Table 9, BLI, read-out: koff",0.00064 s⁻¹
same,kon,"[1]; Table 9, BLI, read-out: kon",50.3 M⁻¹ s⁻¹
same,affinity versus NFP WT (Table 8 data),[2],approximately two times lower affinity
same,association (Kon) versus NFP WT (Table 8 data),[2],almost unaffected
same,"association rate (kon), fold faster than WT (Table 9 data)",[2],4.5 fold
same,"dissociation (Koff), times faster than NFP WT (Table 8 data)",[2],approximately 15 times
same,"dissociation rate (koff), fold increase over WT (Table 9 data)",[2],59 fold
same,lower affinity compared to WT NFP ectodomain (Table 9 data),[2],13 fold
B1,nodule formation (complementation of nfr1),[3],absence of nodulation; also recorded: signaling incompetent
B2,binding kinetics to chitin fragments,[4],fast association and dissociation rates
B3,average nodules per plant,[5],10 nodules per plant
